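How tested: cells in 96-well plates exposed to compound for 48 hours at five concentrations. At the GI50, growth is halved.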 The source made the active and inactive calls. Cut-off read from the data, not from the text of the source: active = GI50 up to about 1.1 µM and inactive = higher.
Columns and labels:
Experiment in all cases: NCI-60 cell line screen, 48 h
LOX IMVI = test system: LOX IMVI
KM12 = test system: KM12
NCI-H23 = test system: NCI-H23
NCI-H460 = test system: NCI-H460
UACC-257 = test system: UACC-257
DU-145 = test system: DU-145
CAKI-1 = test system: CAKI-1
UACC-62 = test system: UACC-62
ACHN = test system: ACHN
NCI-H226 = test system: NCI-H226
K562 = test system: K562
A498 = test system: A498
OVCAR-3 = test system: OVCAR-3
HCT-15 = test system: HCT-15
MDA-MB-435 = test system: MDA-MB-435
UO-31 = test system: UO-31
SK-MEL-5 = test system: SK-MEL-5
RPMI-8226 = test system: RPMI-8226
M14 = test system: M14
SR = test system: SR
TK-10 = test system: TK-10
OVCAR-4 = test system: OVCAR-4
HCC 2998 = test system: HCC 2998
Malme-3M = test system: Malme-3M
A549 = test system: A549
SN12C = test system: SN12C
SNB-75 = test system: SNB-75
NCI-H522 = test system: NCI-H522
SF-295 = test system: SF-295
HL-60 = test system: HL-60
SF-268 = test system: SF-268
SK-MEL-28 = test system: SK-MEL-28
SF-539 = test system: SF-539
HOP-92 = test system: HOP-92
HT-29 = test system: HT-29
SW-620 = test system: SW-620
MDA-MB-231 = test system: MDA-MB-231
HOP-62 = test system: HOP-62
OVCAR-5 = test system: OVCAR-5
CCRF-CEM = test system: CCRF-CEM
U-251 = test system: U-251
SK-OV-3 = test system: SK-OV-3
MCF7 = test system: MCF7
RXF 393 = test system: RXF 393
NCI/ADR-RES = test system: NCI/ADR-RES
OVCAR-8 = test system: OVCAR-8
COLO 205 = test system: COLO 205
PC-3 = test system: PC-3
MDA-N = test system: MDA-N
EKVX = test system: EKVX
Hs-578T = test system: Hs-578T
HCT-116 = test system: HCT-116
MOLT-4 = test system: MOLT-4
SNB-19 = test system: SNB-19
786-0 = test system: 786-0
IGROV-1 = test system: IGROV-1
T47D = test system: T47D

For `C[N+](C)(C)CCOP(=O)(O)OP(=O)([O-])OCC1CCC(n2ccc(N)nc2=O)O1` (centres undefined), the GI50 (LOX IMVI) was > 100 µM (inactive), the GI50 (KM12) was > 100 µM (inactive) and the GI50 (NCI-H23) was > 100 µM (inactive). The GI50 (NCI-H460) was > 100 µM (inactive), the GI50 (UACC-257) was > 100 µM (inactive) and the GI50 (DU-145) was > 100 µM (inactive). For the same molecule, the GI50 (CAKI-1) was > 100 µM (inactive), the GI50 (UACC-62) was > 100 µM (inactive) and the GI50 (ACHN) was > 100 µM (inactive). The GI50 (NCI-H226) was > 100 µM (inactive), the GI50 (K562) was > 100 µM (inactive) and the GI50 (A498) was > 80.9 µM (inactive). For the same molecule, the GI50 (OVCAR-3) was > 100 µM (inactive), the GI50 (HCT-15) was greater than 100 µM and the GI50 (MDA-MB-435) was > 100 µM (inactive). For the same molecule, the GI50 (UO-31) was > 100 µM (inactive), the GI50 (SK-MEL-5) was > 100 µM (inactive) and the GI50 (RPMI-8226) was > 100 µM (inactive). The GI50 (M14) was > 100 µM (inactive), the GI50 (SR) was > 100 µM (inactive) and the GI50 (TK-10) was > 100 µM (inactive). The GI50 (OVCAR-4) was > 100 µM (inactive), the GI50 (HCC 2998) was > 100 µM (inactive) and the GI50 (Malme-3M) was > 100 µM (inactive). The GI50 (A549) was > 100 µM (inactive), the GI50 (SN12C) was > 100 µM (inactive) and the GI50 (SNB-75) was > 100 µM (inactive). For the same molecule, the GI50 (NCI-H522) was > 100 µM (inactive), the GI50 (SF-295) was > 100 µM (inactive) and the GI50 (HL-60) was > 100 µM (inactive). For the same molecule, the GI50 (SF-268) was > 100 µM (inactive), the GI50 (SK-MEL-28) was > 100 µM (inactive) and the GI50 (SF-539) was > 100 µM (inactive). The GI50 (HOP-92) was > 100 µM (inactive), the GI50 (HT-29) was > 100 µM (inactive) and the GI50 (SW-620) was > 100 µM (inactive). For the same molecule, the GI50 (MDA-MB-231) was 77.6 µM (inactive), the GI50 (HOP-62) was > 100 µM (inactive) and the GI50 (OVCAR-5) was > 100 µM (inactive).
`CC(=O)c1sc2c(c1OC(=O)c1cccs1)c(=O)n(-c1ccccc1)c(=S)n2-c1ccccc1` was tested, and the GI50 (LOX IMVI) was 4.84 µM (inactive), the GI50 (CCRF-CEM) was 3.9 µM (inactive) and the GI50 (U-251) was 5.86 µM (inactive). The GI50 (KM12) was 23 µM (inactive), the GI50 (NCI-H23) was 19.3 µM (inactive) and the GI50 (NCI-H460) was 12.3 µM (inactive). For the same molecule, the GI50 (UACC-257) was 11.7 µM (inactive), the GI50 (SK-OV-3) was 21.9 µM (inactive) and the GI50 (DU-145) was 26.8 µM (inactive). For the same molecule, the GI50 (CAKI-1) was 30.8 µM (inactive), the GI50 (MCF7) was 21 µM (inactive) and the GI50 (RXF 393) was 3.86 µM (inactive). The GI50 (UACC-62) was 19.9 µM (inactive), the GI50 (NCI/ADR-RES) was 15.2 µM (inactive) and the GI50 (ACHN) was 3.54 µM (inactive). The GI50 (NCI-H226) was 3.08 µM (inactive), the GI50 (OVCAR-8) was 5.01 µM (inactive) and the GI50 (K562) was 35.4 µM (inactive). The GI50 (A498) was 4.71 µM (inactive), the GI50 (COLO 205) was 18 µM (inactive) and the GI50 (OVCAR-3) was 23 µM (inactive). The GI50 (HCT-15) was 17.5 µM, the GI50 (MDA-MB-435) was 8.24 µM (inactive) and the GI50 (SK-MEL-5) was 12.1 µM (inactive). The GI50 (RPMI-8226) was 4.32 µM (inactive), the GI50 (PC-3) was 3.63 µM (inactive) and the GI50 (MDA-N) was 5.5 µM (inactive). For the same molecule, the GI50 (M14) was 3.24 µM (inactive), the GI50 (EKVX) was 25.1 µM (inactive) and the GI50 (TK-10) was 23.7 µM (inactive). For the same molecule, the GI50 (OVCAR-4) was 22 µM (inactive), the GI50 (HCC 2998) was 39.4 µM (inactive) and the GI50 (Hs-578T) was 3.66 µM (inactive). For the same molecule, the GI50 (Malme-3M) was 2.8 µM (inactive), the GI50 (A549) was 62.5 µM (inactive) and the GI50 (SN12C) was 3.94 µM (inactive). The GI50 (HCT-116) was 16.9 µM (inactive), the GI50 (SNB-75) was 29.4 µM (inactive) and the GI50 (NCI-H522) was 0.359 µM (active). For the same molecule, the GI50 (SF-295) was 2.62 µM (inactive), the GI50 (HL-60) was 26 µM (inactive) and the GI50 (MOLT-4) was 20.3 µM (inactive). For the same molecule, the GI50 (SF-268) was 6.07 µM (inactive), the GI50 (SK-MEL-28) was 2.99 µM (inactive) and the GI50 (SNB-19) was 12.5 µM (inactive). The GI50 (SF-539) was 2.41 µM (inactive), the GI50 (HOP-92) was 5.24 µM (inactive) and the GI50 (HT-29) was 3.21 µM (inactive). The GI50 (786-0) was 4.75 µM (inactive), the GI50 (SW-620) was 22.4 µM (inactive) and the GI50 (IGROV-1) was 18.6 µM (inactive). The GI50 (MDA-MB-231) was 14.4 µM (inactive), the GI50 (T47D) was 15.9 µM (inactive) and the GI50 (HOP-62) was 17 µM (inactive). For the same molecule, the GI50 (OVCAR-5) was 3.29 µM (inactive).
`Cc1ccc(S(=O)(=O)N2CCN3CCN(CCN(C)CCN4CCN(CC4)CCN(S(=O)(=O)c4ccc(C)cc4)CCN(S(=O)(=O)c4ccc(C)cc4)CCN(S(=O)(=O)c4ccc(C)cc4)CCN(S(=O)(=O)c4ccc(C)cc4)CCN4CCN(CCN(C)CCN5CCN(CC5)CCN(S(=O)(=O)c5ccc(C)cc5)CCN(S(=O)(=O)c5ccc(C)cc5)CCN(S(=O)(=O)c5ccc(C)cc5)CC2)CC4)CC3)cc1` was tested, and the GI50 (CCRF-CEM) was 0.303 µM (active), the GI50 (U-251) was 0.235 µM (active) and the GI50 (KM12) was 0.541 µM (active). For the same molecule, the GI50 (NCI-H460) was 0.553 µM (active), the GI50 (UACC-257) was 1.77 µM (inactive) and the GI50 (MCF7) was 1.5 µM (inactive). For the same molecule, the GI50 (NCI/ADR-RES) was > 100 µM (inactive), the GI50 (ACHN) was 1.79 µM (inactive) and the GI50 (OVCAR-8) was 2.1 µM (inactive). The GI50 (K562) was 0.248 µM (active), the GI50 (HCT-15) was 1.49 µM and the GI50 (SK-MEL-5) was 1.63 µM (inactive). For the same molecule, the GI50 (RPMI-8226) was 0.308 µM (active), the GI50 (PC-3) was 1.85 µM (inactive) and the GI50 (MDA-N) was 1.52 µM (inactive). The GI50 (M14) was 1.95 µM (inactive), the GI50 (SR) was 0.254 µM (active) and the GI50 (EKVX) was 2.33 µM (inactive). For the same molecule, the GI50 (HCC 2998) was 0.766 µM (active), the GI50 (A549) was 1.82 µM (inactive) and the GI50 (SNB-75) was 1.35 µM (inactive). The GI50 (HL-60) was 0.407 µM (active), the GI50 (MOLT-4) was 0.437 µM (active) and the GI50 (SF-268) was 1.14 µM (inactive). For the same molecule, the GI50 (SF-539) was 2.06 µM (inactive), the GI50 (HOP-92) was 1.04 µM (active) and the GI50 (HT-29) was 0.208 µM (active). For the same molecule, the GI50 (SW-620) was 1.05 µM (active), the GI50 (IGROV-1) was 1.97 µM (inactive) and the GI50 (OVCAR-5) was 1.87 µM (inactive).
